Laboratory results as given in patent US20070041915A1, “Use of a biguanide derivative for protecting skin against uvb radiation” (PHARMAMENS, priority 2003, published 2007).

Experiments:
[1] = cited from earlier work
Langerhans cells = experiment: Protective activity against UVB-induced immunosuppressive photo effect (depletion of Langerhans cells) on survival-maintained human skin explants, anti-CD1a labelling; type: cell-based; details: histology and immunolabelling of Langerhans cells 24 hours after irradiation; preventive application
Method: The purpose of this study is to evidence the protective activity of metformin against an immunosuppressive photo effect (depletion of Langerhans cells) induced by UVB radiation on a survival-maintained human skin model.
The immunosuppressive photo activity induced by UVB is, assessed by counting the number of Langerhans cells in a separated epidermis and in tissue sections after anti-CDla labelling.
27 skin explants were prepared and maintained in-survival in a culture medium. They were divided among 9 batches of three explants: three reference batches, three excipient batches and three ointment batches containing 1% metformin (formulation example 3).
3 batches (reference, excipient and ointment) were exposed to UVB radiation of 4 J/cm^2, three batches (reference, excipient and ointment) to UVB radiation of 6 J/cm^2 and the three last batches were placed in darkness during the time of irradiation.
Daily application of the ointment was 4 mg per explant for 3 days before irradiation.
Analysis of the reference and treated explants was performed 24 h after irradiation.
Anti-CDla immunolabelling of Langerhans cells was made in the separated epidermis and in tissue sections.

Compound: CN(C)C(=N)N=C(N)N [metformin]
- toxicity ([1]; at hypoglycaemic doses): absence of toxicity
- chronic toxicity ([1]; in vivo): practically zero
- tolerance ([1]; in vivo): good
- protective activity against UVB (Langerhans cells): protective action
